pIC50: −log10 of the molar value. “Also recorded” adds a separate entry of the source.
What was measured:
[1] = system: alpha or beta in vitro estradiol receptors; test: competitive radio-ligand binding assay, statements that do not separate alpha and beta; parameters: species or system human; details: alpha or beta receptor not separated; for estradiol binding / estradiol displacement: highest concentration 2.5×E-4 M
[2] = molecular target: recombinant human estradiol receptors (rhER) alpha (α) (Homo sapiens (Human), UniProt P03372); test: competitive radio-ligand binding assay, rhER alpha; details: at as high as 2.5×E-4 molar concentration
Chain of recombinant human estradiol receptors (rhER) alpha (α) (P03372 whole entry): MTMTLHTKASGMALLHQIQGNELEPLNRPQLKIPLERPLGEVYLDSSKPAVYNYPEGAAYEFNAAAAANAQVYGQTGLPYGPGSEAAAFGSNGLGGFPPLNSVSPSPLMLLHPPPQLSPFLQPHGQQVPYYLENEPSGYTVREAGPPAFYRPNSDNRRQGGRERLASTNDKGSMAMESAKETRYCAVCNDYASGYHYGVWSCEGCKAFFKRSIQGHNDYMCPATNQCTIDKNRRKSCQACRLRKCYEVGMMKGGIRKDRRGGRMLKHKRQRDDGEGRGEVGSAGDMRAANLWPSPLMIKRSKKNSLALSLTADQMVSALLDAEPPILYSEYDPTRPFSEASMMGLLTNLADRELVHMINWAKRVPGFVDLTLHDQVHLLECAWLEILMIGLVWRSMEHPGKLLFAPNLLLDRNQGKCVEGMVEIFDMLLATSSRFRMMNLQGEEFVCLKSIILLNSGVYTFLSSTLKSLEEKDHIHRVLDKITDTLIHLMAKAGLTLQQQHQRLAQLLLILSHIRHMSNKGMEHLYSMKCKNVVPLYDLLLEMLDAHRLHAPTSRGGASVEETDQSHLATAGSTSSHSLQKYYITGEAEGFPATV

[3] = molecular target: recombinant human estradiol receptors (rhER) beta 1 (β1) (Homo sapiens (Human), UniProt Q92731); test: competitive radio-ligand binding assay, rhER beta 1; details: at as high as 2.5×E-4 molar concentration
Chain of recombinant human estradiol receptors (rhER) beta 1 (β1) (Q92731 whole entry): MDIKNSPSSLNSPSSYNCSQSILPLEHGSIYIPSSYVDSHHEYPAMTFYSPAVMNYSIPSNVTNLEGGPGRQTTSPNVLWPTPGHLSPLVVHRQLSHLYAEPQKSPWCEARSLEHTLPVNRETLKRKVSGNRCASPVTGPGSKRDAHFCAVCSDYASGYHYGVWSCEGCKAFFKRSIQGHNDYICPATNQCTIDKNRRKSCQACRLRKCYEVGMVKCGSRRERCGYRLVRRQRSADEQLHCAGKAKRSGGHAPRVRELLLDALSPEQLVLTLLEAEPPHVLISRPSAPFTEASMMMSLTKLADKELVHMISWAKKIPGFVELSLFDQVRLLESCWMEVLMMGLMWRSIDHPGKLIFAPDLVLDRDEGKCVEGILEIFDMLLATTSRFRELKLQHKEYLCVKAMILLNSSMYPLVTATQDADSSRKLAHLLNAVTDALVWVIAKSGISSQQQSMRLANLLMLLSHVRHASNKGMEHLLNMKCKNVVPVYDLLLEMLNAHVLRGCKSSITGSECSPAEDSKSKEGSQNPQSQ

Compound	estradiol binding / estradiol displacement [1]	other results
C[C@]12CC[C@@H]3c4ccc(O)cc4CC[C@H]3[C@@H]1CC[C@@H]2O [A, 17b-estradiol, reference compound]	binds at a very low concentration	–
CC(C)(c1ccccc1)c1ccc(O)cc1 [B, p-Cumyl Phenol, reference compound]	displace estradiol at low concentrations	–
CC(c1ccccc1)(c1ccc(O)cc1)c1ccc(O)cc1 [D, Bisphenol Acetophenone, reference compound]	displace estradiol at low concentrations	–
Cc1cc(C(C)(C)c2cc(C)c(O)c(C)c2)cc(C)c1O [Example 1, Tetra Methyl BPA]	no estradiol binding	–
Oc1ccccc1 [Example 2, Phenol]	no estradiol binding	pIC50 ([1]; highest concentration tested 2.5×E-4 M): ≤ 3.60
O=C1c2ccccc2C(c2ccc(O)cc2)(c2ccc(O)cc2)N1c1ccccc1 [Example 3, N-Phenyl Phenolphthalein Bisphenol]	no estradiol binding	estradiol displacement at the alpha receptor [2]: no detectible estradiol displacement; estradiol displacement at the beta receptor [3]: no detectible estradiol displacement; estradiol binding / estradiol displacement ([1]; listed as N-phenyl phenyl phenolphthalein): no displacement
Oc1cccc(O)c1 [Example 4, Resorcinol]	no estradiol binding	estradiol displacement at the alpha receptor [2]: no detectible estradiol displacement; estradiol displacement at the beta receptor [3]: no detectible estradiol displacement
CC(C)(C)c1cc(O)c(C(C)(C)C)cc1O [Example 7, Di t-Butyl Hydroquinone]	no estradiol binding	estradiol displacement at the alpha receptor [2]: no displacement; estradiol displacement at the beta receptor [3]: no displacement; estradiol binding / estradiol displacement ([1]; listed as di-tert butyl hydroquinone): no displacement
Cc1cc(O)ccc1O [Example 8, Methyl Hydroquinone]	no displacement; also recorded: no estradiol binding	estradiol displacement at the beta receptor [3]: no alpha or beta estradiol displacement
Oc1ccc(Oc2ccc(O)cc2)cc1 [Example C, Dihydroxy Diphenyl Ether, reference compound]	displace estradiol at low concentrations	–
Cc1cc(C2(c3ccc(O)c(C)c3)CCCCC2)ccc1O [G, Dimethyl Cyclohexyl Bisphenol, reference compound]	displace estradiol at low concentrations	–
CC(C)(c1ccc(O)cc1)c1cccc(C(C)(C)c2ccc(O)cc2)c1 [K, Bisphenol M, reference compound]	displace estradiol at low concentrations	–
O=C1OC(c2ccc(O)cc2)(c2ccc(O)cc2)c2ccccc21 [O, Phenolphthalein, reference compound]	undesirable estradiol displacement at low concentration	–
Benzophenone bisphenol [reference compound]	undesirable estradiol displacement at low concentration	–
Biphenol [Example 6]	no estradiol binding	estradiol displacement at the alpha receptor [2]: no displacement
Bis Hydroxy Phenyl Menthane [reference compound]	displace estradiol at low concentrations	–
Dimethyl Acetophenone Bisphenol [reference compound]	displace estradiol at low concentrations	–
Diphenolic Acid Methyl Ester [F, reference compound]	displace estradiol at low concentrations	–
Spiro Biindane Bisphenol [Example 5]	no displacement; also recorded: no estradiol binding	–
